This test has as its target T1, HGFR (Homo sapiens, UniProt P08581).
T1 construct: purchased Upstate 14-526
The test can be described thus: HGFR continuous-coupled spectrophotometric assay. Type of test: biochemical. The settings on record: for inhibition at 1 pM / inhibition at 1 µM: read-out: % Inhibition (percent c-MET inhibition); for inhibition at 0.05 µM: at 50 nM, Table 5, library procedure 40, read-out: % inhibition (percent c-MET inhibition); for inhibition at 1 µM: Table 8, library procedure 43.

Setting [1] is: cells prefixed Ki, read-out: Met Ki.
Where [2] appears, read: Table 3, column 'Ki (μM) or I (%)': cells without % sign, read-out: Ki.

SMILES strings stand for the structures. Read-outs that look alike come from different tables or passages of the source.

T1 sequence (P08581 974-1390 limits assumed): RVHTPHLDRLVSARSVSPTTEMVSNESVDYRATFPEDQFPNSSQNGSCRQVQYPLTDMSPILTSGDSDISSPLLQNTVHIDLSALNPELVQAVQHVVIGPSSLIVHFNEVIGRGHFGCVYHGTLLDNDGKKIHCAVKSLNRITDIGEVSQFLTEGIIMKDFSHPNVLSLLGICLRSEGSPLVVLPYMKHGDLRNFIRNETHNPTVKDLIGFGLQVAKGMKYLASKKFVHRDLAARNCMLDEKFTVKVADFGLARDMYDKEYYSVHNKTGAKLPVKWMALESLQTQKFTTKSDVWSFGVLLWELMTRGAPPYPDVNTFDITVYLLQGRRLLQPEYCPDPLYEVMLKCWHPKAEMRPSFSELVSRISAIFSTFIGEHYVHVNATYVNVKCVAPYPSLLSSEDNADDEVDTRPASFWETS

Regarding `CC(Oc1cc(C#CC(C)(C)NC(=O)NCCN2CCCC2)cnc1N)c1c(Cl)ccc(F)c1Cl` (centres unmarked) [Example I-437, 1-(3-{6-Amino-5-[1-(2,6-dicloro-3-fluoro-phenyl)-ethoxy]-pyridin-3-yl}-1,1-dimethyl-prop-2-ynyl)-3-(2-pyrrolidin-1-yl-ethyl)-urea], the Ki – broadly, a dissociation constant, usually derived from enzyme kinetics or from competition with a known ligand – under setting [1] stood at 0.61 µM. Consider `COCC1CN(CC(N)=O)CCN(C(=O)c2cnc(N)c(OCc3c(Cl)cccc3Cl)c2)C1` [Example L-331], for which, under “Table 6, library procedure 41”, the inhibition – broadly, the relative decrease from the control value, in per cent – at 1 pM amounted to 23%. With `CC(Oc1cc(-c2ccc(C(=O)N3CCN(CCS(C)(=O)=O)CC3)cc2)cnc1N)c1c(Cl)ccc(F)c1Cl` [Example L-163], the inhibition at 0.05 µM was 83%. In the case of `CC1CN(C(=O)c2ccc(-c3cnc(N)c(OCc4ccc(C(F)(F)F)cc4C(F)(F)F)c3)cc2)CC(C)N1` (centres unmarked), the inhibition at 1 µM is 22%.

Consider `CCc1ccn2cc(COc3cc(-c4ccc(C(=O)N5CCC(N6CCCC6)CC5)cc4)cnc3N)nc2c1`, for which the inhibition at 1 pM (Table 7, library procedure 42) came to 9%. `CCOC(=O)CCNC(=O)c1cccc(COc2cc(-c3ccc(C(=O)N4CC(C)NC(C)C4)cc3)cnc2N)c1` (centres unmarked): the inhibition at 1 µM turned out to be 14%. As for `Cc1oc(-c2ccccc2)nc1COc1cc(-c2ccc(C(=O)N3CCC(N4CCCC4)CC3)cc2)cnc1N`, under “Table 7, library procedure 42”, the inhibition at 1 pM amounted to 19%. For `CC1CN(C(=O)c2ccc(-c3cnc(N)c(OCc4ccc(C(F)(F)F)c(F)c4)c3)cc2)CC(C)N1` (centres unmarked), the inhibition at 1 µM came out at 17%. For the compound `Nc1ncc(-c2ccc(C(=O)N3CCC(N4CCCC4)CC3)cc2)cc1OCc1ccc(S(=O)(=O)Nc2ccc(F)cc2)cc1`, for the setting “Table 7, library procedure 42”, the inhibition at 1 pM was 15%.

With `Nc1ncc(C(=O)N2CCC(N3CCCCC3=O)CC2)cc1OCc1c(Cl)cccc1Cl` [Example L-283], the inhibition at 1 pM (Table 6, library procedure 41) turned out to be 26%. In the case of `CC1CN(C(=O)c2ccc(-c3cnc(N)c(OCc4nnnn4Cc4ccccc4)c3)cc2)CC(C)N1` (centres unmarked), the inhibition at 1 µM turned out to be 15%. On to `Nc1ncc(-c2ccc(C(=O)N3CCC(N4CCCC4)CC3)cc2)cc1OCc1ccc(F)c(F)c1F`, for which the inhibition at 1 pM (Table 7, library procedure 42) amounted to 15%. In the case of `CC(Oc1cc(-c2ccc(C(=O)NCc3ccc(C(F)(F)F)nc3)cc2)cnc1N)c1c(Cl)ccc(F)c1Cl` [Example L-148], the inhibition at 0.05 µM is 62%. In the case of `Cc1cc(C)nc(COc2cc(-c3ccc(C(=O)N4CCC(N5CCCC5)CC4)cc3)cnc2N)n1`, the inhibition at 1 pM (Table 7, library procedure 42) stood at 16%. For `CN(CC(N)=O)C(=O)c1cnc(N)c(OCc2c(Cl)cccc2Cl)c1` [Example L-259], the inhibition at 1 pM (Table 6, library procedure 41) turned out to be 39%. For the compound `Nc1ncc(-c2ccc(C(=O)N3CCC(N4CCCC4)CC3)cc2)cc1OCc1c(F)cccc1C(F)(F)F`, the inhibition at 1 pM (Table 7, library procedure 42) was found to be 31%. For the compound `CN(C)CCNC(=O)c1cccc(COc2cc(-c3ccc(C(=O)N4CCC(N5CCCC5)CC4)cc3)cnc2N)c1`, the inhibition at 1 pM (Table 7, library procedure 42) stood at 20%. As for `Nc1ncc(C(=O)NCC(O)CN2CCC(Cc3ccccc3)CC2)cc1OCc1c(Cl)cccc1Cl` [Example L-276], under “Table 6, library procedure 41”, the inhibition at 1 pM is 32%. Turning to `CCN1CCCC1CNC(=O)c1cccc(COc2cc(-c3ccc(C(=O)N4CC(C)NC(C)C4)cc3)cnc2N)c1` (centres unmarked), the inhibition at 1 µM was determined as 10%. On to `CC(Oc1cc(-c2cnn(CCN3CCOCC3)c2)cnc1N)c1c(Cl)ccc(F)c1Cl` (centres unmarked) [Example I-467, 3-[1-(2,6-Dichloro-3-fluoro-phenyl)-ethoxy]-5-[1-(2-morpholin-4-yl-ethyl)-1H-pyrazol-4-yl]-pyridin-2-ylamine], for which, under setting [1], the Ki was found to be 0.083 µM. With `Nc1ncc(C(=O)NCC2COc3ccccc3O2)cc1OCc1c(Cl)cccc1Cl` [Example L-234], the inhibition at 1 pM (Table 6, library procedure 41) is 34%.

Regarding `Nc1ncc(-c2ccc(C(=O)N3CCC(N4CCCC4)CC3)cc2)cc1OCc1cc(Cl)cc(Cl)c1`, the inhibition at 1 pM (Table 7, library procedure 42) worked out at 19%. As to `Nc1ncc(C(=O)N2CCN(CCCN3CCOCC3)CC2)cc1OCc1c(Cl)cccc1Cl` [Example L-261], the inhibition at 1 pM (Table 6, library procedure 41) stood at 40%. On the same count and under the same terms, with `CN(CCS(C)(=O)=O)C(=O)c1cnc(N)c(OCc2c(Cl)cccc2Cl)c1` [Example L-297] the figure was 26%. On to `CC1CN(C(=O)c2ccc(-c3cnc(N)c(OCc4cccc5cccnc45)c3)cc2)CC(C)N1` (centres unmarked), for which the inhibition at 1 µM was determined as 17%.

Turning to `CC(Oc1cc(-c2ccc(C(=O)NCCc3ccccc3)cc2)cnc1N)c1c(Cl)ccc(F)c1Cl` [Example L-18], the inhibition at 0.05 µM was 66%. Take `CC(Oc1cc(-c2ccc(C(=O)NCc3ccncc3)cc2)cnc1N)c1c(Cl)ccc(F)c1Cl` [Example L-27]: the inhibition at 0.05 µM stood at 74%. Consider `Nc1nc(COc2cc(-c3ccc(C(=O)N4CCC(N5CCCC5)CC4)cc3)cnc2N)nc(Nc2ccccc2)n1`, for which, under “Table 7, library procedure 42”, the inhibition at 1 pM was 9%. On the same count and under the same terms, the figure for `Nc1ncc(-c2ccc(C(=O)N3CCC(N4CCCC4)CC3)cc2)cc1OCc1ccc(Cl)c(Cl)c1` is 26%; for `COc1ccccc1-c1nc(COc2cc(-c3ccc(C(=O)N4CCC(N5CCCC5)CC4)cc3)cnc2N)c(C)o1` it is 19%; for `Nc1ncc(-c2ccc(C(=O)N3CCC(N4CCCC4)CC3)cc2)cc1OCc1nc(CS(=O)(=O)c2ccccn2)no1` it is 9%.

Consider `CCN1CCCC1CNC(=O)c1ccc(-c2cnc(N)c(OC(C)c3c(Cl)ccc(F)c3Cl)c2)cc1` [Example L-30], for which the inhibition at 0.05 µM is 80%.

Take `Nc1ncc(-c2ccc(C(=O)N3CCC(N4CCCC4)CC3)cc2)cc1OCc1ccc2ccc(Cl)cc2n1`: for the setting “Table 7, library procedure 42”, the inhibition at 1 pM was found to be 24%. For the compound `CC1CN(C(=O)c2ccc(-c3cnc(N)c(OCc4cc(Cl)ccc4Cl)c3)cc2)CC(C)N1` (centres unmarked), the inhibition at 1 µM is 32%. With `Nc1ncc(C(=O)N2CCCC(Cc3ncccn3)C2)cc1OCc1c(Cl)cccc1Cl` [Example L-324], the inhibition at 1 pM (Table 6, library procedure 41) was 25%. For the compound `CC(Oc1cc(C#CC(C)(C)NC(=O)N2CCC[C@H]2CN2CCCC2)cnc1N)c1c(Cl)ccc(F)c1Cl` (stereo partly drawn) [Example I-435, (S)-2-Pyrrolidin-1-ylmethyl-pyrrolidine-1-carboxylic acid (3-{6-amino-5-[1-(2,6-dichloro-3-fluoro-phenyl)-ethoxy]-pyridin-3-yl}-1,1-dimethyl-prop-2-ynyl)-amide], the Ki under setting [1] was 1.58 µM.

For the compound `CC(Oc1cc(-c2ccc(CN3CCOCC3)cc2)cnc1N)c1c(Cl)ccc(F)c1Cl` (centres unmarked) [Example I-572, 3-[1-(2,6-Dichloro-3-fluoro-phenyl)-ethoxy]-5-(4-morpholin-4-ylmethyl-phenyl)-pyridin-2-ylamine], the Ki under setting [2] came out at 0.0554 µM. Regarding `CC(C)Cc1noc(COc2cc(-c3ccc(C(=O)N4CC(C)NC(C)C4)cc3)cnc2N)n1` (centres unmarked), the inhibition at 1 µM was determined as 14%. Take `Nc1ncc(C(=O)NCCc2ccc(O)cc2)cc1OCc1c(Cl)cccc1Cl` [Example L-219]: the inhibition at 1 pM (Table 6, library procedure 41) was 34%. As to `CC(=O)NCCNC(=O)c1cnc(N)c(OCc2c(Cl)cccc2Cl)c1` [Example L-190], the inhibition at 1 pM (Table 6, library procedure 41) is 35%. With `Cc1onc(-c2ccccc2)c1COc1cc(-c2ccc(C(=O)N3CC(C)NC(C)C3)cc2)cnc1N` (centres unmarked), the inhibition at 1 µM amounted to 16%. For the compound `CC(C)OCCNC(=O)c1ccc(-c2cnc(N)c(OC(C)c3c(Cl)ccc(F)c3Cl)c2)cc1` [Example L-140], the inhibition at 0.05 µM was 141%.

Take `Cc1cccc(COc2cc(-c3ccc(C(=O)N4CCC(N5CCCC5)CC4)cc3)cnc2N)c1F`: for the setting “Table 7, library procedure 42”, the inhibition at 1 pM is 28%. In the case of `Nc1ncc(-c2ccc(C(=O)N3CCC(N4CCCC4)CC3)cc2)cc1OCc1csc(-c2ccc(Cl)cc2)n1`, the inhibition at 1 pM (Table 7, library procedure 42) amounted to 9%.

Take `COc1ccccc1-c1nc(COc2cc(-c3ccc(C(=O)N4CCC(N5CCCC5)CC4)cc3)cnc2N)no1`: where the note is “Table 7, library procedure 42”, the inhibition at 1 pM was 8%. `CC(Oc1cc(-c2ccc(C(=O)NCc3ccc(OC(F)(F)F)cc3)cc2)cnc1N)c1c(Cl)ccc(F)c1Cl` [Example L-77]: the inhibition at 0.05 µM stood at 54%. On the same count and under the same terms, with `CC(Oc1cc(-c2ccc(C(=O)NCC3(N(C)C)CCOCC3)cc2)cnc1N)c1c(Cl)ccc(F)c1Cl` [Example L-155] the figure was 66%.

`CC(Oc1cc(-c2ccc(OCC(=O)O)cc2)cnc1N)c1c(Cl)ccc(F)c1Cl` (centres unmarked) [Example I-476, (4-{6-Amino-5-[1-(2,6-dichloro-3-fluoro-phenyl)-ethoxy]-pyridin-3-yl}-phenoxy)-acetic acid]: under setting [1], the Ki worked out at 0.2 µM. Consider `Cc1cc2cc(CNC(=O)c3cnc(N)c(OCc4c(Cl)cccc4Cl)c3)ccc2[nH]1` [Example L-294], for which the inhibition at 1 pM (Table 6, library procedure 41) was determined as 20%. As for `CCOC(=O)c1nc(COc2cc(-c3ccc(C(=O)N4CCC(N5CCCC5)CC4)cc3)cnc2N)no1`, the inhibition at 1 pM (Table 7, library procedure 42) worked out at 8%. As to `Nc1ncc(C(=O)NC2CCN(Cc3ccccc3)C2)cc1OCc1c(Cl)cccc1Cl` [Example L-184], the inhibition at 1 pM (Table 6, library procedure 41) is 27%.

With `CC(Oc1cc(-c2ccc(C(=O)N(C)C3CCN(C)CC3)cc2)cnc1N)c1c(Cl)ccc(F)c1Cl` [Example L-32], the inhibition at 0.05 µM is 92%.

As to `CCC(Oc1cc(-c2ccc(C(=O)N3C[C@@H](C)N[C@@H](C)C3)cc2)cnc1N)c1c(Cl)cccc1Cl` (some centres unmarked) [Example I-648, (4-{6-Amino-5-[1-(2,6-dichloro-phenyl)-propoxy]-pyridin-3-yl}-phenyl)-(3,5-dimethyl-piperazin-1-yl)-methanone], the Ki under setting [2] came to 0.553 µM. Consider `CC(Oc1cc(-c2ccc(C(=O)N3CCN(c4ccncc4)CC3)cc2)cnc1N)c1c(Cl)ccc(F)c1Cl` [Example L-89], for which the inhibition at 0.05 µM was 96%. The same measure, in the same setting: the figure for `CC(Oc1cc(-c2ccc(C(=O)NCCC3CCCN3C)cc2)cnc1N)c1c(Cl)ccc(F)c1Cl` [Example L-1] is 58%. In the case of `COc1ccccc1-c1cnc(N)c(OC(C)c2c(Cl)ccc(F)c2Cl)c1` (centres unmarked) [Example I-566, 3-[1-(2,6-Dichloro-3-fluoro-phenyl)-ethoxy]-5-(2-methoxy-phenyl)-pyridin-2-ylamine], the inhibition constant Ki under setting [2] came to 0.278 µM.

As to `Nc1ncc(C(=O)N2CCC(O)(CCc3ccncc3)CC2)cc1OCc1c(Cl)cccc1Cl` [Example L-322], the inhibition at 1 pM (Table 6, library procedure 41) came to 25%. For `Cc1ccnc(NC(=O)c2ccc(-c3cnc(N)c(OC(C)c4c(Cl)ccc(F)c4Cl)c3)cc2)c1` [Example L-131], the inhibition at 0.05 µM is 61%. Take `CC1CN(C(=O)c2ccc(-c3cnc(N)c(OCc4nccn4Cc4ccccc4)c3)cc2)CC(C)N1` (centres unmarked): the inhibition at 1 µM was determined as 11%.

These data come from patent US20050009840A1 (SUGEN, INC., priority 2003, published 2005).
